# Measured values taken from ChEMBL document CHEMBL4765227, “Hit to lead optimization of a series of N-[4-(1,3-benzothiazol-2-yl)phenyl]acetamides as monoacylglycerol lipase inhibitors with potential anticancer activity” (Eur J Med Chem, 2016).
# Experiments:
# [1] = test system: OVCAR-8; assay: Growth inhibition of human OVCAR-8 cells at 10 uM incubated for 48 hrs by sulforhodamine B assay relative to control; assay type: functional; details: read-out: GI
# [2] = test system: NCI-H322M; assay: Growth inhibition of human NCI-H322M cells at 10 uM incubated for 48 hrs by sulforhodamine B assay relative to control; assay type: functional; details: read-out: GI
# [3] = test system: SK-MEL-2; assay: Growth inhibition of human SK-MEL-2 cells at 10 uM incubated for 48 hrs by sulforhodamine B assay relative to control; assay type: functional; details: read-out: GI
# [4] = test system: NCI-H460; assay: Growth inhibition of human NCI-H460 cells at 10 uM incubated for 48 hrs by sulforhodamine B assay relative to control; assay type: functional; details: read-out: GI
# [5] = test system: EKVX; assay: Growth inhibition of human EKVX cells at 10 uM incubated for 48 hrs by sulforhodamine B assay relative to control; assay type: functional; details: read-out: GI
# [6] = test system: MDA-MB-435; assay: Growth inhibition of human MDA-MB-435 cells at 10 uM incubated for 48 hrs by sulforhodamine B assay relative to control; assay type: functional; details: read-out: GI
# [7] = test system: K562; assay: Growth inhibition of human K562 cells at 10 uM incubated for 48 hrs by sulforhodamine B assay relative to control; assay type: functional; details: read-out: GI
# [8] = test system: SN12C; assay: Growth inhibition of human SN12C cells at 10 uM incubated for 48 hrs by sulforhodamine B assay relative to control; assay type: functional; details: read-out: GI
# [9] = test system: MDA-MB-231; assay: Growth inhibition of human MDA-MB-231 cells at 10 uM incubated for 48 hrs by sulforhodamine B assay relative to control; assay type: functional; details: read-out: GI
# [10] = test system: A498; assay: Growth inhibition of human A498 cells at 10 uM incubated for 48 hrs by sulforhodamine B assay relative to control; assay type: functional; details: read-out: GI
# [11] = test system: SW-620; assay: Growth inhibition of human SW-620 cells at 10 uM incubated for 48 hrs by sulforhodamine B assay relative to control; assay type: functional; details: read-out: GI
# [12] = test system: KM12; assay: Growth inhibition of human KM12 cells at 10 uM incubated for 48 hrs by sulforhodamine B assay relative to control; assay type: functional; details: read-out: GI
# [13] = test system: UO-31; assay: Growth inhibition of human UO-31 cells at 10 uM incubated for 48 hrs by sulforhodamine B assay relative to control; assay type: functional; details: read-out: GI
# [14] = test system: SF-539; assay: Growth inhibition of human SF-539 cells at 10 uM incubated for 48 hrs by sulforhodamine B assay relative to control; assay type: functional; details: read-out: GI
# [15] = test system: NCI-H522; assay: Growth inhibition of human NCI-H522 cells at 10 uM incubated for 48 hrs by sulforhodamine B assay relative to control; assay type: functional; details: read-out: GI
# [16] = test system: NCI-H23; assay: Growth inhibition of human NCI-H23 cells at 10 uM incubated for 48 hrs by sulforhodamine B assay relative to control; assay type: functional; details: read-out: GI
# [17] = target: T1, Monoglyceride lipase (Homo sapiens, UniProt Q99685); assay: Inhibition of human MAGL using 4-Nitrophenylacetate as substrate
# T1 sequence (Q99685 whole entry): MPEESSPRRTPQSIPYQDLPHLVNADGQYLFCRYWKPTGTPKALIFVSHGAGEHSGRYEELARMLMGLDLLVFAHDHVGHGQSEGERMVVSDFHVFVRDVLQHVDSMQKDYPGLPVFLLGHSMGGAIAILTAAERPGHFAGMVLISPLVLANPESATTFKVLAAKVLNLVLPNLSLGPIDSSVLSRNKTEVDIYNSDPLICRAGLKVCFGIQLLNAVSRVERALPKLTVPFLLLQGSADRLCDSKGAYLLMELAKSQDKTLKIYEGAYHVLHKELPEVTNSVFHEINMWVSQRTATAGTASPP
# [18] = test system: K562; assay: Growth inhibition of human K562 cells incubated for 48 hrs by sulforhodamine B assay; assay type: functional
# [19] = test system: SR; assay: Growth inhibition of human SR cells incubated for 48 hrs by sulforhodamine B assay; assay type: functional
# [20] = test system: HCT-15; assay: Growth inhibition of human HCT-15 cells incubated for 48 hrs by sulforhodamine B assay; assay type: functional
# [21] = test system: NCI-H460; assay: Growth inhibition of human NCI-H460 cells incubated for 48 hrs by sulforhodamine B assay; assay type: functional
# [22] = test system: HT-29; assay: Growth inhibition of human HT-29 cells incubated for 48 hrs by sulforhodamine B assay; assay type: functional
# [23] = test system: NCI/ADR-RES; assay: Growth inhibition of human NCI/ADR-RES cells incubated for 48 hrs by sulforhodamine B assay; assay type: functional
# [24] = test system: 786-0; assay: Growth inhibition of human 786-0 cells incubated for 48 hrs by sulforhodamine B assay; assay type: functional
# [25] = test system: SNB-75; assay: Growth inhibition of human SNB-75 cells incubated for 48 hrs by sulforhodamine B assay; assay type: functional
# [26] = test system: COLO 205; assay: Growth inhibition of human COLO 205 cells incubated for 48 hrs by sulforhodamine B assay; assay type: functional
# [27] = test system: SW-620; assay: Growth inhibition of human SW-620 cells incubated for 48 hrs by sulforhodamine B assay; assay type: functional
# [28] = test system: UACC-62; assay: Growth inhibition of human UACC-62 cells incubated for 48 hrs by sulforhodamine B assay; assay type: functional
# [29] = test system: NCI-H226; assay: Growth inhibition of human NCI-H226 cells incubated for 48 hrs by sulforhodamine B assay; assay type: functional
# [30] = test system: NCI-H522; assay: Growth inhibition of human NCI-H522 cells incubated for 48 hrs by sulforhodamine B assay; assay type: functional
# [31] = test system: A498; assay: Growth inhibition of human A498 cells incubated for 48 hrs by sulforhodamine B assay; assay type: functional
# [32] = test system: SF-539; assay: Growth inhibition of human SF-539 cells incubated for 48 hrs by sulforhodamine B assay; assay type: functional
# [33] = test system: SN12C; assay: Growth inhibition of human SN12C cells incubated for 48 hrs by sulforhodamine B assay; assay type: functional
# [34] = test system: RPMI-8226; assay: Growth inhibition of human RPMI-8226 cells incubated for 48 hrs by sulforhodamine B assay; assay type: functional
# [35] = test system: SF-268; assay: Growth inhibition of human SF-268 cells incubated for 48 hrs by sulforhodamine B assay; assay type: functional
# [36] = test system: HL-60(TB); assay: Growth inhibition of human HL-60(TB) cells incubated for 48 hrs by sulforhodamine B assay; assay type: functional
# [37] = read-out: LC50 (the source's name)
smiles,measurement,setting,value
O=C(Cn1nnc2ccccc21)Nc1ccc(-c2nc3ccccc3s2)cc1,inhibition of growth at 10 µM,[1],1.53%
same,inhibition of growth at 10 µM,[2],-2.72%
same,inhibition of growth at 10 µM,[3],-0.54%
same,inhibition of growth at 10 µM,[4],17%
same,inhibition of growth at 10 µM,[5],21.8%
same,inhibition of growth at 10 µM,[6],4.09%
same,inhibition of growth at 10 µM,[7],44.8%
same,inhibition of growth at 10 µM,[8],-0.79%
same,inhibition of growth at 10 µM,[9],5.25%
same,inhibition of growth at 10 µM,[10],14.9%
same,inhibition of growth at 10 µM,[11],5.47%
same,inhibition of growth at 10 µM,[12],8.6%
same,inhibition of growth at 10 µM,[13],13.5%
same,inhibition of growth at 10 µM,[14],28.8%
same,inhibition of growth at 10 µM,[15],20.8%
same,inhibition of growth at 10 µM,[16],19.3%
O=C(Cn1c2ccccc2c2ccccc21)Nc1ccc(-c2nc3ccccc3s2)cc1,inhibition of growth at 10 µM,[1],-2.86%
same,inhibition of growth at 10 µM,[2],-5.2%
same,inhibition of growth at 10 µM,[3],-0.88%
same,inhibition of growth at 10 µM,[4],-1.93%
same,inhibition of growth at 10 µM,[5],-3.36%
same,inhibition of growth at 10 µM,[6],-1.43%
same,inhibition of growth at 10 µM,[7],4.71%
same,inhibition of growth at 10 µM,[8],-1.32%
same,inhibition of growth at 10 µM,[9],4.37%
same,inhibition of growth at 10 µM,[10],9.51%
same,inhibition of growth at 10 µM,[11],-2.44%
same,inhibition of growth at 10 µM,[12],0.15%
same,inhibition of growth at 10 µM,[13],12.8%
same,inhibition of growth at 10 µM,[14],4.12%
same,inhibition of growth at 10 µM,[15],3.42%
same,inhibition of growth at 10 µM,[16],6.54%
same,IC50,[17],> 100 µM
O=C(CNc1c(Cl)cccc1Cl)Nc1ccc(-c2nc3ccccc3s2)cc1,GI50,[18],2.86 µM
same,LC50,[18],> 100 µM
same,TGI,[18],11.5 µM
same,GI50,[19],1.05 µM
same,LC50,[19],> 100 µM
same,TGI,[19],5.33 µM
same,inhibition of growth at 10 µM,[1],33.3%
same,GI50,[20],1.58 µM
same,TGI,[20],4.5 µM
same,CC50,[20]; [37],53.7 µM
same,GI50,[21],3.36 µM
same,TGI,[21],12.4 µM
same,CC50,[21]; [37],43 µM
same,inhibition of growth at 10 µM,[2],5.42%
same,GI50,[22],2.01 µM
same,LC50,[22],8.66 µM
same,TGI,[22],4.17 µM
same,inhibition of growth at 10 µM,[3],15.2%
same,inhibition of growth at 10 µM,[4],8.81%
same,GI50,[23],3.06 µM
same,LC50,[23],> 100 µM
same,TGI,[23],8.06 µM
same,GI50,[24],1.76 µM
same,LC50 (50% lethal concentration),[24],8.34 µM
same,TGI,[24],3.83 µM
same,GI50,[25],2.97 µM
same,LC50 (concentration killing 50% of cells),[25],39.2 µM
same,TGI,[25],15.4 µM
same,GI50,[26],2.1 µM
same,LC50,[26],8.79 µM
same,TGI,[26],4.29 µM
same,inhibition of growth at 10 µM,[6],32.1%
same,inhibition of growth at 10 µM,[7],89.5%
same,GI50,[27],2.01 µM
same,LC50 (concentration killing 50% of cells),[27],9.85 µM
same,TGI,[27],4.45 µM
same,inhibition of growth at 10 µM,[8],52%
same,inhibition of growth at 10 µM,[9],43.1%
same,GI50,[28],1.72 µM
same,LC50,[28],8.97 µM
same,TGI,[28],3.92 µM
same,inhibition of growth at 10 µM,[11],64.7%
same,GI50,[29],2.02 µM
same,LC50,[29],> 100 µM
same,TGI,[29],5.32 µM
same,inhibition of growth at 10 µM,[12],8.67%
same,GI50,[30],1.29 µM
same,LC50 (50% lethal concentration),[30],7.58 µM
same,TGI,[30],3.13 µM
same,inhibition of growth at 10 µM,[13],26.3%
same,inhibition of growth at 10 µM,[14],20.1%
same,GI50,[31],13.8 µM
same,TGI,[31],26.9 µM
same,CC50,[31]; [37],52.4 µM
same,inhibition of growth at 10 µM,[15],193%
same,GI50,[32],1.83 µM
same,LC50,[32],6.34 µM
same,TGI,[32],3.41 µM
same,GI50,[33],2.49 µM
same,LC50,[33],86.1 µM
same,TGI,[33],8.08 µM
same,GI50,[34],2.07 µM
same,LC50,[34],> 100 µM
same,TGI,[34],5.21 µM
same,inhibition of growth at 10 µM,[16],59.1%
same,GI50,[35],1.99 µM
same,LC50,[35],9.52 µM
same,TGI,[35],4.35 µM
same,GI50,[36],2.43 µM
same,TGI,[36],8.38 µM
same,CC50,[36]; [37],> 100 µM
